≈ marks a conversion by molar mass, not a printed value. Read-outs that look alike come from different tables or passages of the source.
Assays:
[1] = Parallel Artificial Membrane Permeability Assay (PAMPA); conditions: 500 uM stock, similar conditions
Procedure: Briefly, determinations were carried out on MultiScreen-IP PAMPA assay (donor) plates (MAIPNTR10) and MultiScreen Receiver Plates (MATRNPS50) from Millipore Corporation (USA) with 1% lecithin (L-α-phosphatidylcholine from lyophilized powder of egg yolk, Sigma Aldrich, USA) in dodecane (ReagentPlus®, Sigma Aldrich, USA) as lipid barrier. 5 μL of 1% lecithin in dodecane was dispensed into the wells of the donor plates. […] The mobile phase was Milli-Q water (0.1% formic acid) and acetonitrile (0.1% formic acid), run on gradient.
Pe was obtained from Equation 1:
[formula] Where VA and VD are the volumes of acceptor (cm^3) and donor (cm^3) wells respectively, A is the area of the surface area of the membrane (0.24 cm^2), t is the permeation time (s); S is the fraction of sample remaining in the donor and acceptor wells after permeation time and is determined from Equation 2, CA and CD are the concentrations (μM) of test/reference compound in acceptor and donor wells respectively.
The Pe of each compound was obtained from at least 3 separate experiments using no less than 2 different stock solutions. For each independent determination, triplicates (3 wells) were run for each compound.

[2] = target: T1, Isoprenylcysteine carboxyl methyltransferase (Icmt) (Homo sapiens, UniProt O60725); test: Icmt inhibition, scintillation proximity assay with BFC and [3H]SAM; assay type: biochemical
T1 construct: made in house; host or cells: Sf9 (Spodoptera frugiperda) insect cells; membrane preparation provided by Prof PJ Casey (Duke University / Duke-NUS)
T1 sequence (O60725 whole entry, species assumed): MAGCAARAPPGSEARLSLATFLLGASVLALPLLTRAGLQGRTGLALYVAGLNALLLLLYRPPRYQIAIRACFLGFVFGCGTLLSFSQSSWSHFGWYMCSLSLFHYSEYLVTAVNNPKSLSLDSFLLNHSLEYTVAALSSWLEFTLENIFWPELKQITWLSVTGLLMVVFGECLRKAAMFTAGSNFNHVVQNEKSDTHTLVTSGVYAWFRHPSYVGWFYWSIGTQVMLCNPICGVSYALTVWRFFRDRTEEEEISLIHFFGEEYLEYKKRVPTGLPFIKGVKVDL
Procedure: Isoprenylcysteine carboxyl methyltransferase (Icmt) was provided by Prof PJ Casey of Duke University, NC. S-Adenosylmethionine (SAM), magnesium chloride Hexahydrate (MgCl2), tartrazine, 4-(2-hydroxyethyl)-1-piperazineethanesulfonic acid (HEPES), dimethyl sulfoxide (DMSO) and dithiotreitol (DTT) were purchased from Sigma (Mo, USA). [^3H] S-Adenosylmethionine, [^3H] Biotin and Streptavidin PVT SPA Beads were purchased from PerkinElmer (Waltham, Mass.). Assays were performed in black small volume 384 well microtitre plates from PerkinElmer.
Stocks of Icmt membrane protein (30 μg/μL) stored at −80° C. were thawed at 37° C. and placed on ice. The Icmt membrane protein was diluted in assay buffer (70 mM HEPES, 100 mM NaCl, 5 mM Mg Cl2 and 3 mM DTT, pH 7.5) to a 0.03 μg/μL working concentration and added to the wells of a microtitre plate (5 μl/well). To each wells 20 μl of the reaction buffer was added. The reaction was initiated with the addition of 5 μL of substrate solution containing BFC (6 μM), SAM (3 μM) and 30 μCi/mL [^3H] SAM (all of these reagents were stored at −20° C., SAM reagents thawed on ice, BFC thawed at RT). The plate was incubated at 37° C. for 30 minutes. The reaction was stopped with the addition of 15 μL of stop solution containing SAM (150 μM) and Streptavidin SPA beads (20 mg/mL). Following overnight incubation at ambient temperature radioactivity was counted on a Microbeta Trilux™ (Perkin Elmer, Turku, Finland).
Sf9 (Spodoptera frugiperda ovarian) membranes containing recombinant Icmt were provided by Prof PJ Casey (Duke University, NC and Duke-NUS Graduate Medical School). S-Adenosylmethionine (SAM), magnesium chloride hexahydrate, tartrazine, 4-(2-hydroxyethyl)-1-piperazineethanesulfonic acid (HEPES) and dithiotreitol (DTT) were purchased from Sigma (Mo, USA). [^3H] S-Adenosylmethionine, [^3H] biotin and streptavidin PVT SPA Beads were purchased from PerkinElmer (Waltham, Mass.). Biotinylated farnesylcysteine was synthesized as described in an earlier report. Assays were performed in black 384-well microtitre plates from PerkinElmer.
A vial of Icmt membrane protein (30 μg/μL) stored at −80° C. was thawed at 37° C. and placed on ice. The protein was diluted in assay buffer (70 mM HEPES, 100 mM NaCl, 5 mM MgCl2, 3 mM DTT, pH 7.5) to 0.03 μg/μL and aliquots were added to each well (5 μL/well), followed by 20 μL of the assay buffer. The reaction was initiated by adding 5 μL of a solution containing biotinylated BFC (6 μM), SAM (3 μM) and 30 μCi/mL [^3H] SAM. These reagents were stored at −20° C. and thawed on ice (SAM, [^3H] SAM) or at room temperature (BFC). The plate was incubated at 37° C. for 30 minutes after which the reaction was quenched by adding 15 μL of a solution comprising SAM (150 μM) and streptavidin SPA beads (20 mg/mL). After overnight incubation at ambient temperature, radioactivity was counted (Microbeta Trilux™, Perkin Elmer, Turku, Finland). The degree of inhibition was assessed from the radioactivity obtained in presence of test compound compared to that obtained from the control sample […]. Two independent determinations were made for each test compound.

[3] = test system: PC3 Prostrate cancer cells; test: Antiproliferative activity / cell viability (MTS, 72 h); assay type: cell-based, human; conditions: Homo sapiens
Procedure: (§4) The relative number of the live cells was determined using the CellTiter® 96 AQueous One Solution Cell Proliferation Assay (Promega). Determinations were made in duplicates or triplicates.

[4] = test system: Human lung fibroblast IMR90 cells; test: Cell viability on non-malignant cells (MTS, 72 h); assay type: cell-based
Procedure: (§1) Cell viability was determined from the expression:
(§2) The plot was constrained to ≧0 and ≦100%.
Human lung fibroblast IMR90 cells were purchased from ATCC (Rockville, Md.) and grown in Eagle's Minimal Essential Media (EMEM, Sigma Aldrich, Singapore) at 37° C., 5% CO2. […] Seeding density was maintained at 4000 cells per well.

physchem = conditions: for solubility at 3 h / solubility at 24 h: pH 7.4, aqueous buffer, kinetic from dmso stock; for solubility at 24 h: 25 °C
Procedure: The turbid solution was delivered to the filter plate, agitated for a specific time period and then filtered. The concentration of dissolved compound in the filtrate was determined by uv spectroscopy and referred to pre-constructed calibration curves for solubility determination.
(§3) Determination of aqueous solubility was carried out on Multiscreen® Solubility filter plates (Millipore-MSSLBPC10) from Millipore Corporation (MA, USA). The protocol (PC2445EN00, Millipore Corporation) was followed. Briefly, various concentrations of the test compound were prepared in Universal buffer (pH 7.4)/acetonitrile/DMSO. The UV absorbances of these solutions were obtained at a pre-determined wavelength and used to construct a calibration curve for the test compound. Next, a stock solution of the test compound in DMSO was prepared at a known concentration, diluted with Universal buffer (pH 7.4), dispensed into wells in the Multiscreen Solubility filter plate, and agitated for a period of time. The suspension is then filtered, the filtrate collected and diluted with acetonitrile to give the same solvent composition used to prepare the calibration solutions. The absorbance of the diluted filtrate was then read at the predetermined wavelength and the concentration of the filtrate (taken here to be equivalent to the solubility of the test compound) was determined from the calibration curve.
as §3, with “24 hours at room temperature (25 deg C.). […]” for “a period of time.”, “was” for “is then”, “was” for “was then”, “(equivalent” for “(taken here to be equivalent”, “curve. […] LCMS determinations were made on an Agilent 1200 Series HPLC linked to a AB Sciex Instruments 3200 Q TRAP LC/MS/MS. Separations were carried out on a Phenomenex Luna column [3u, C18(2), 100A, 5×4.6 mm]. […] Quantification was based on the ratio of peak areas of the daughter ion and the mother ion (M+H), normalized against the same ratio obtained for the internal standard. The solubility determinations were carried out in triplicates or more from two different stock solutions.” for “curve.”

[5] = Aggregation tendency by dynamic light scattering (DLS); assay type: physicochemical; conditions: for DLS count rate (kcps): 1% DMSO, potassium phosphate buffer 5 mM pH 7.4
Procedure: Stock solutions (10 mM) of test compounds prepared in DMSO, diluted to 1 mM with DMSO and then serially diluted with potassium phosphate buffer (5 mM, pH 7.4, prefiltered before use) to give final concentrations of 1 μM and 10 μM. Final concentration of DMSO was 1% v/v. Measurements were carried out on the Malvern Instrument Zetasizer Nano ZS system equipped with a 4 mW He—Ne laser at 633 nm and detector angle of 90°. Three or more determinations of derived count rates (kilocounts per second, kcps) were obtained from each concentration of test compound, using two separately prepared stock solutions. Data collection was carried out using the software supplied with the instrument. Results are represented as mean±standard deviation. The positive control was benzyl benzoate (250 μM) which gave a count rate of 1180 kcps (±35). The vehicle (phosphate buffer, 1% DMSO) gave a reading of 14.9±0.4.

[6] = test system: MDA-MB-231 human breast cells; test: Antiproliferative activity / cell viability (MTS, 72 h); conditions: Homo sapiens
Procedure: as §4
Human breast cancer MDA-MB231, liver cancer HepG2 and lung fibroblast cells were purchased from ATCC (Rockville, Md.). MDA-MB231 cells and IMR-90 cells were grown in DMEM (Sigma Aldrich, Singapore) and EMEM (Sigma Aldrich, Singapore) respectively at 37° C., 5% CO2. DMEM was supplemented with 10% fetal bovine serum (Invitrogen, heat treated at 65 deg C., 30 min), 50 units/L penicillin-G and 50 μg/mL streptomycin. EMEM was supplemented with 10% fetal bovine serum (heat treated as above), 100 mg/L penicillin-G and 100 μg/mL streptomycin.
Cell viability was assessed using CellTitre 96® Aqueous One Solution (Promega, Madison, Wis.) containing the tetrazolium salt 3-(4,5-dimethylthiazol-2-yl)-5-(3-carboxymethoxyphenyl)-2-(4-sulfophenyl)-2H-tetrazolium (MTS). […] Final concentration of DMSO per well was maintained at 0.5% v/v. […] Cell viability was determined from the expression:
The plot was constrained to ≧0 and ≦100%. At least 3 independent determinations of IC50 were made using two different stock solutions of test compound.

[7] = test system: Human hepatocellular carcinoma HepG2 cells; test: Cell viability (MTS, 72 h); assay type: cell-based; conditions: HepG2, Table 6, mean (SD), read-out: IC50 (μM) HepG2
Procedure: as §1, §2
Human hepatocellular carcinoma HepG2 and human pancreatic cancer MIA PACA II cells were obtained from ATCC (Rockville, Md.). They were grown in DMEM (high glucose, Invitrogen) supplemented with 10% FBS, 50 μg/mL penicillin and 50 μg/mL streptomycin, 37° C., 5% CO2 until they reached 80-90% confluency, after which they were subcultured. Passage numbers were kept within 7-14 passages for both cell types.

[8] = test system: MDA-MB-231 human breast cells; conditions: earlier study; read-out: IC50 MDA-MB-231, previous value; cited from earlier work
[9] = Table 3, mean of two or more determinations (SD), read-out: IC50 Icmt
[10] = PC-3M, Table 3, 72 h, mean (SD), read-out: IC50 PC3
[11] = IMR-90, further testing, 72 h, mean (SD), read-out: IC50 IMR90
[12] = MDA-MB-231, 72 h, read-out: IC50 MDA-MB-231 (μM)
[13] = MDA-MB-231, 72 h, read-out: IC50MDA-MB-231 (μM)
[14] = Table 6, from earlier table, read-out: IC50 (μM) PC3
[15] = IMR-90, Table 6, mean (SD), read-out: IC50 (μM) IMR90
[16] = MDA-MB-231, read-out: IC50 (μM) MDA MB 231

solubility at 24 h (physchem) [µM] | SMILES | IC50 [2, 9] [µM] | IC50 [3, 10] [µM] | solubility at 3 h (physchem) [µM] | IC50 [6, 13] [µM] | IC50 [7] [µM] | IC50 [6, 16] [µM] | further results
– | C=C[C@H]1C[N@@]2CC[C@H]1C[C@@H]2[C@@H](O)c1ccnc2ccc(OC)cc12 [quinidine, reference compound] | – | – | – | – | – | – | Pe sequence of standard compounds [1]: verapamil>quinidine>caffeine
– | Cn1c(=O)c2c(ncn2C)n(C)c1=O [caffeine, reference compound] | – | – | – | – | – | – | Pe sequence of standard compounds [1]: verapamil>quinidine>caffeine
– | CCCCCCCCn1cc(CN(CC)CC)c2cc(-c3cccnc3)ccc21 [Compound 8-7, Diethyl-(1-octyl-5-pyridin-3-yl-1H-indol-3ylmethyl)-amine] | 1.75 | 5.84 | 250 (≈ 97.8 µg/mL) | 5.5 | – | – | IC50 [2]: 1.8 µM; IC50 [4, 11]: 5.52 µM; Aqueous Solubility (pH 7.4) 24 hours (physchem; 24 h, pH 7.4): 244.8 (9.7) μM; Solubility (μM) (physchem; 24 h, pH 7.4): 244.8 (9.7) μM; DLS count rate (kcps) ([5]; 1 μM): 16.8 kcps; DLS count rate (kcps) ([5]; 10 μM): 16.5 kcps; IC50 [6, 12]: 6.01 µM
– | CCCCCCCCn1cc(CN(CC)CC)c2cc(-c3ccc(S(C)(=O)=O)cc3)ccc21 [Compound 8-10, Diethyl-[5(4-methanesulfonyl-phenyl)-1-octyl-1H-indol-3ylmethyl]-amine] | 1.72 | 4.74 | – | 5.56 | 3.44 | 5.56 | IC50 [3, 14]: 4.74 µM; IC50 [4, 15]: 5.52 µM
24.9 (≈ 10.8 µg/mL) | CCCCCCCCn1cc(CN(CC)CC)c2cc(-c3cnc(N(C)C)nc3)ccc21 | – | – | 25.3 (≈ 11 µg/mL) | – | – | – | –
– | CCCCCCCCn1cc(CN(CC)CC)c2cc(-c3ccc(S(=O)(=O)NC)cc3)ccc21 [Compound 8-24, 4-(3-Diethylaminomethyl-1-octyl-1H-indol-5-yl)-N-methyl-benzensulfonamide] | 1.71 | – | – | 8.52 | 4.76 | 8.7 | –
272 (≈ 107 µg/mL) | CCCCCCCCn1cc(CN(CC)CC)c2cc(-c3cncnc3)ccc21 [Compound 8-15, Diethyl-(1-octyl-5-pyrimidin-5-yl-1H-indol-3ylmethyl)-amine] | 1.58 | 8.32 | 266 (≈ 105 µg/mL) | 9 | – | – | IC50 ([2]; further testing, mean (SD), read-out: IC50 Icmt): 1.6 µM; IC50 [4, 11]: 9.84 µM; Solubility (μM) (physchem; 24 h, pH 7.4): 271.56 (6.63) μM; DLS count rate (kcps) ([5]; 1 μM): 20.4 kcps; DLS count rate (kcps) ([5]; 10 μM): 28.9 kcps; IC50 [6, 12]: 13.2 µM
– | O=C(OCc1ccccc1)c1ccccc1 [benzyl benzoate, reference compound] | – | – | – | – | – | – | DLS count rate ([5]; positive control, 250 μM): 1180 kcps

SMILES | solubility at 24 h (physchem) [µM] | IC50 [2, 9] [µM] | IC50 [3, 10] [µM] | solubility at 3 h (physchem) [µM] | IC50 [6, 13] [µM] | IC50 [7] [µM] | IC50 [6, 16] [µM] | further results
CCCCCCCCn1cc(CN(CC)CC)c2cc(-c3cccc(C)c3)ccc21 [Compound 8-1] | < 1 | 2.2 | 6.31 | < 1 | 7.9 | 6.57 | 7.9 | IC50 ([2]; Table 3, mean of two or more determinations (SD), listed as 8.1, read-out: IC50 Icmt): 2.18 µM; IC50 [3, 14]: 6.31 µM; IC50 [4, 15]: 5.26 µM; IC50 [8]: 3.6 µM

Reference: patent publication US9422238B2, “ICMT inhibitors” (National University of Singapore, priority 2012, dated 2016)
